Test [1] deals with adult ACC neurons. The experiment in a line: LTP induced by EPSPs-APs protocol in ACC slices. Format: cell-based, mouse. As to conditions: 0.3 μM. As for the experimental part: (§1) Coronal brain slices ([…]) from 6-8-week-old C57BL/6 mice, containing ACC or hippocampus, were prepared using standard methods (Wei et al., 2001). Slices were transferred to a submerged recovery chamber containing oxygenated (95% O2 and 5% CO2) artificial cerebrospinal fluid (ACSF) (in mM: 124 NaCl, 4.4 KCl, 2 CaCl2, 1 MgSO4, 25 NaHCO3, 1 NaH2PO4, 10 glucose) at room temperature for at least 1 h.
Experiments were performed in a recording chamber on the stage of an Axioskop 2FS microscope with infrared DIC optics for visualizing whole-cell patch clamp recordings. EPSCs were recorded from layer II-III neurons using an Axon 200B amplifier (Axon Instruments, CA) and stimulations were delivered using a bipolar tungsten stimulating electrode placed in layer V of the ACC. In hippocampal slices, EPSCs were evoked by stimulating the Schaffer collateral-commissural pathway. EPSCs were induced by repetitive stimulations at 0.02 Hz and neurons were voltage clamped at −70 mV. The recording pipettes (3-5 MΩ) were filled with solution containing (mM) 145 K-gluconate, 5 NaCl, 1 MgCl2, 0.2 EGTA, 10 HEPES, 2 Mg-ATP, and 0.1 Na3-GTP (adjusted to pH 7.2 with KOH). After obtaining stable EPSCs for 10 min, three kinds of LTP induction paradigms were used within 12 min after establishing the whole-cell configuration to prevent wash out effect on LTP induction (Tsvetkov et al., 2002). The first protocol involved paired presynaptic 80 pulses at 2 Hz with postsynaptic depolarization at +30 mV (referred to as pairing training). The second involved paired 3 presynaptic stimuli that caused 3 EPSPs (10 ms ahead) with 3 postsynaptic APs at 30 Hz, paired 15 times every 5 s (named as EPSPs-APs protocol). The third involved theta-burst stimulation (5 trains of burst with 4 pulses at 100 Hz, at 200 ms interval; repeated 4 times at intervals of 10 s; named as TBS). The NMDAR-mediated component of EPSCs was pharmacologically isolated in Mg^2+-free ACSF containing: CNQX (20 μM), glycine (1 μM) and picrotoxin (100 μM). The patch electrodes contained (in mM) 102 cesium gluconate, 5 TEA-chloride, 3.7 NaCl, 11 BAPTA, 0.2 EGTA, 20 HEPES, 2 MgATP, 0.3 NaGTP, and 5 QX-314 chloride (adjusted to pH 7.2 with CsOH). Neurons were voltage clamped at −60 mV and NMDARs-mediated EPSCs were evoked at 0.05 Hz. Picrotoxin (100 μM) was always present to block GABAA receptor-mediated inhibitory synaptic currents. The access resistance was 15-30 MΩ and was monitored throughout the experiment. Data were discarded if access resistance changed by more than 15% during an experiment. Results are expressed as means±SEM. Statistical comparisons were performed using the Student t-test. […]

The test system of test [2] is NMDAR-mediated currents in the hippocampus. The experiment in a line: NMDAR-mediated EPSCs in hippocampal CA1 neurons. Format: cell-based, mouse. The following applies: hippocampus. The method, then: as §1
Experiments were performed in a recording chamber on the stage of an Axioskop 2FS microscope with infrared DIC optics for visualizing whole-cell patch clamp recordings. EPSCs were recorded from layer II-III neurons using an Axon 200B amplifier (Axon Instruments, CA) and stimulations were delivered using a bipolar tungsten stimulating electrode placed in layer V of the ACC. In hippocampal slices, EPSCs were evoked by stimulating the Schaffer collateral-commissural pathway. EPSCs were induced by repetitive stimulations at 0.02 Hz and neurons were voltage clamped at −70 mV. The recording pipettes (3-5 MΩ) were filled with solution containing (mM) 145 K-gluconate, 5 NaCl, 1 MgCl2, 0.2 EGTA, 10 HEPES, 2 Mg-ATP, and 0.1 Na3-GTP (adjusted to pH 7.2 with KOH). After obtaining stable EPSCs for 10 min, three kinds of LTP induction paradigms were used within 12 min after establishing the whole-cell configuration to prevent wash out effect on LTP induction (Tsvetkov et al., 2002). The first protocol involved paired presynaptic 80 pulses at 2 Hz with postsynaptic depolarization at +30 mV (referred to as pairing training). The second involved paired 3 presynaptic stimuli that caused 3 EPSPs (10 ms ahead) with 3 postsynaptic APs at 30 Hz, paired 15 times every 5 s (named as EPSPs-APs protocol). The third involved theta-burst stimulation (5 trains of burst with 4 pulses at 100 Hz, at 200 ms interval; repeated 4 times at intervals of 10 s; named as TBS). The NMDAR-mediated component of EPSCs was pharmacologically isolated in Mg^2+-free ACSF containing: CNQX (20 μM), glycine (1 μM) and picrotoxin (100 μM). The patch electrodes contained (in mM) 102 cesium gluconate, 5 TEA-chloride, 3.7 NaCl, 11 BAPTA, 0.2 EGTA, 20 HEPES, 2 MgATP, 0.3 NaGTP, and 5 QX-314 chloride (adjusted to pH 7.2 with CsOH). Neurons were voltage clamped at −60 mV and NMDARs-mediated EPSCs were evoked at 0.05 Hz. Picrotoxin (100 μM) was always present to block GABAA receptor-mediated inhibitory synaptic currents. The access resistance was 15-30 MΩ and was monitored throughout the experiment. Data were discarded if access resistance changed by more than 15% during an experiment. Results are expressed as means±SEM. Statistical comparisons were performed using the Student t-test.
One possible mechanism is that NR2B-containing receptors may contribute more to total NMDA currents in ACC synapses than in hippocampal synapses. […] Application of 0.1 μM or 0.4 μM NVP-AAM077 depressed total NMDAR-mediated currents by 59.0±4.3% (n=5) and 63.2±1.7% (n=6) in the ACC respectively (FIG. 5). On the other hand, application of 0.3 μM or 3 μM Ro25-6981 attenuated total NMDAR-mediated currents by 18.0±1.9% (n=5) and 18.1±3.4% (n=7) in the ACC respectively, showing that 0.3 μM Ro25-6981 was sufficient to block the NR2B-mediated currents (FIG. 5). This experiment was repeated in hippocampal CA1 neurons. […] However, unlike in the ACC, application of 0.3 μM Ro25-6981 alone potentiated, rather than blocked, total NMDAR-mediated currents by 51.3±16.4% in the hippocampus (FIG. 5).
The same experiment was repeated in the hippocampus.

Test [3] concerns male Sprague Dawley rats. The test can be described thus: Rat fear conditioning (contextual and auditory fear memory). It counts as in vivo. An excerpt: For one site drug infusion, 23-guage guide cannulas were implanted bilaterally into the dorsal hippocampus (CA1 region: 3.2 mm posterior to Bregma, ±1.5˜1.7 mm lateral from the midline, 1.7 mm beneath the surface of the skull). For two sites drug infusion, guide cannulas were implanted bilaterally into the dorsal hippocampus (first injection site: 2.8 mm posterior to Bregma, ±1.5 mm lateral from the midline, 1.7 mm beneath the surface of the skull; second injection site: 3.8 mm posterior to Bregma, ±1.8˜2.2 mm lateral from the midline, 1.3 mm beneath the surface of the skull). The dummy cannulas, cut 0.5 mm longer than guide cannulas, were inserted into the guide cannulas to prevent clogging and reduce the risk of infection. Rats were given at least 5 days to recover before experimentation. A 30-gauge injection cannula that was 1.5 mm lower than the guide was used for intra-hippocampal infusion. 1.0 μl Ro25-6981 (0.1 μg /μl) or saline was delivered bilaterally at the rate of 0.5 μl/min using a pump. After infusion, the cannulas were left in place for an additional 2 min to allow the solution to diffuse away from the cannula tip. Fifteen minutes later, rats were conditioned by one pairing of a tone (2.2 kHz, 96 dB, 30 s) and a foot shock (2.0 mA, 2 s) that terminated at the same time as the tone. […] Rats were returned to the conditioning chamber and allowed to stay in the chamber for 3-min without footshock.
However, the effects of local hippocampal injections of NR2B antagonists on fear conditioning have not been examined. Ro25-6981 (5 μg in 0.5 μl) was bilaterally injected into dorsal hippocampi (FIG. 8B) before conditional training. […] The NR2B specific antagonist was also injected into the ACC and hippocampus of rats and contextual and auditory fear memory was then measured. […] Hippocampal injections of a higher dose of Ro25-6981 (5 μg in 1 μl per side) bilaterally or multiple injections of the same dose (2 per side) were then tested to determine their affect on either contextual or auditory fear memory.

Setting [4] is: hippocampal injections 5 μg in 1 μl per side, single or multiple (2 per side).

“Also recorded” adds a separate entry of the source.

Consider one molecule from US20070161592A1, “Method of treating fear” (priority 2005, published 2007).

Regarding `C[C@@H](CN1CCC(Cc2ccccc2)CC1)[C@@H](O)c1ccc(O)cc1` [Ro25-6981], in test [1], the “potentiation after EPSPs-APs protocol, % of baseline” value is on record as 114.4±11.5%. The “effect on LTP induced by EPSPs-APs protocol” value in test [1] (FIG. 4B) was “blocked”. Moreover, the “further reduction of total NMDAR-mediated currents” value in test [2] (0.3 μM Ro25-6981 added to the same neuron after 0.4 μM NVP-AAM077) stood at 6.6±1.4%. In addition, in test [2] (0.3 μM alone), the “potentiation of total NMDAR-mediated currents” value was 51.3±16.4%. For the same molecule, the “effect on total NMDAR-mediated currents” value in test [2] (bath application, FIG. 5) is listed as “enhanced”. In test [3] (0.1 μg in 1 μl bilaterally into dorsal hippocampus before fear conditioning), the contextual memory result is “did not impair contextual fear memory; also recorded: did not produce a significant impairment”. Moreover, the auditory fear memory entry in test [3] (setting [4]) was “Neither single nor multiple injections of Ro25-6981 produced a significant impairment”; in test [3] (injected in the ACC), “did not affect auditory fear memory”; in test [3] (injected in the hippocampus) it was “did not affect auditory fear memory”. Besides, the contextual fear memory entry is “Neither single nor multiple injections of Ro25-6981 produced a significant impairment” in test [3] (setting [4]) and “impaired contextual fear memory; also recorded: significant reduction in contextual fear memory” in test [3] (in 1 μl per side bilaterally into the ACC before conditioning, tested one day after training).
